This is an account of results in patent publication US20260035384A1, “COMPOUND CONTAINING CYCLOHEXYL” (CHIA TAI TIANQING PHARMACEUTICAL GROUP CO., LTD., priority 2022, published 2026).

The structures appear in SMILES notation.

This assay deals with T1, AR in VCaP cells (Homo sapiens, UniProt P10275).
T1 construct: Assay on Degradation Activity for AR in VCaP Cells; endogenous in cells; host or cells: VCaP cells
T1 sequence (P10275 1-920): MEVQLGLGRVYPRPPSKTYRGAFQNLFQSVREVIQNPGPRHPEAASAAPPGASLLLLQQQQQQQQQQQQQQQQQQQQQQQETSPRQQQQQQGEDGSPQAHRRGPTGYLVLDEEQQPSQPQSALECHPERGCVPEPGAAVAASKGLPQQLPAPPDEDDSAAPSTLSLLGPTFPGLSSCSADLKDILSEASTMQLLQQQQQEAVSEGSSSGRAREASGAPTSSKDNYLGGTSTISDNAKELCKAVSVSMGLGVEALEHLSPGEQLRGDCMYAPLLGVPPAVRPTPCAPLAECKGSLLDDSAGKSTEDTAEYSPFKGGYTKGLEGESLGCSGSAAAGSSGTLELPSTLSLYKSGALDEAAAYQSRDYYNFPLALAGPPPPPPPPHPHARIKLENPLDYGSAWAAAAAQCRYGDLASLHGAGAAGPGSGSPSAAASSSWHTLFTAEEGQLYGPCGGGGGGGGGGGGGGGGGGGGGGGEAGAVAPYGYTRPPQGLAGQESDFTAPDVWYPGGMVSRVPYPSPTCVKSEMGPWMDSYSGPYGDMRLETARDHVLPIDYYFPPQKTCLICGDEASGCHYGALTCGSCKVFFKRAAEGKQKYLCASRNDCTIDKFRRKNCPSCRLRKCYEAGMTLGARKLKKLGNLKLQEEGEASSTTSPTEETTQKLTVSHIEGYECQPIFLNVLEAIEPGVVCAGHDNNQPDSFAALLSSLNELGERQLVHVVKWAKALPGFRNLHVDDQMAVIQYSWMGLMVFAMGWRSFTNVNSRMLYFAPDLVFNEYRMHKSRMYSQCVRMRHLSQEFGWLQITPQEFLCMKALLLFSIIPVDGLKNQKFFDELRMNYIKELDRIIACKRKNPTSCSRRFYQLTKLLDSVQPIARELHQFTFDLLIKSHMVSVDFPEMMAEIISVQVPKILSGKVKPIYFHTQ
Briefly: Assay on degradation activity for AR in VCaP cells (HTRF human androgen receptor detection kit). The assay is classed as cell-based. Particulars: 24 h incubation. In short, it runs like this: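 VCaP cells seeded overnight in 2% CSS-FBS phenol red-free DMEM, then treated 24 h with compound at 1000 nM–0.977 nM final, in duplicate. Lysates probed with AR Eu cryptate/d2 antibody HTRF (2 h, 25° C., 665/620 nm); DC50 and Dmax from four-parameter dose-response fits.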

As for `N#Cc1ccc(O[C@H]2CC[C@H](NC(=O)c3ccc(C4CCN(C5CN(c6cc7onc(C8CCC(=O)NC8=O)c7c7ccccc67)C5)CC4)nn3)CC2)cc1Cl` (stereo partly shown) [Compound 48], the DC50 is at most 1 nM.
